Measurements taken from patent US20220402862A1 (Intellia Therapeutics, Inc., priority 2019, published 2022).

Experiments:
[1] = pKa measurement of unformulated amine lipid (fluorescence, method of Jayaraman et al.); assay type: physicochemical; conditions: 100 μM in 0.1 M phosphate buffer, pH 2.0-12.0
Method: The pKa of each amine lipid was determined according to the method in Jayaraman, et al. (Angewandte Chemie, 2012) with the following adaptations. […] Lipid was diluted to 100 μM in 0.1 M phosphate buffer (Boston Bioproducts) where the pH ranged from 2.0-12.0. Fluorescence intensity was measured using excitation and emission wavelengths of 321 nm and 448 nm.

[2] = RNA encapsulation efficiency of LNPs (Ribogreen fluorescence assay); assay type: physicochemical; conditions: LNP, sg:mRNA 1:1, N/P about 6, amine lipid/DSPC/cholesterol/PEG-2k-DMG 50/9/38/3; Table 2, Experiments 2-20
In short: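 LNPs were diluted in 1× TE with 0.2% Triton X-100 (total RNA) or without it (free RNA), stained with RiboGreen for ~10 min at room temperature in the dark, and read at Ex 488/Em 525 nm against standard curves of the starting RNA. Encapsulation efficiency = (Total − Free)/Total.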

Transthyretin (TTR) = assay: Serum TTR ELISA in mice after LNP dosing; assay type: in vivo, CD-1 female mice; conditions: guide G282 experiments; for Serum TTR % TSS: mouse serum TTR relative to TSS control; for Serum TTR: mouse serum, ELISA
Method: CD-1 female mice ranging from 6-10 weeks of age were used in each study. Animals were weighed and grouped according to body weight for preparing dosing solutions based on group average weight. LNPs were dosed via the lateral tail vein in a volume of 0.2 mL per animal (approximately 10 mL per kilogram body weight). The animals were periodically observed for adverse effects for at least 24 hours post dose. For studies measuring in vivo editing in liver, CD-1 female mice were dosed at 0.1 mg/kg unless otherwise noted. Animals were euthanized at 6 or 7 days by ex sanguination via cardiac puncture under isoflurane anesthesia. Liver tissue was collected from each animal for DNA extraction and analysis. Blood was collected into serum separator tubes or into tubes containing buffered sodium citrate for plasma as described herein. Cohorts of mice were measured for editing by Next-Generation Sequencing (NGS).
Blood was collected and the serum was isolated as indicated. The total mouse TTR serum levels were determined using a Mouse Prealbumin (Transthyretin) ELISA Kit (Aviva Systems Biology, Cat. OKIA00111). Briefly, sera were serial diluted with kit sample diluent to a final dilution of 10,000-fold for 0.1 mg/kg dose and final dilutions of 10,000-fold and of 2,500-fold for 0.3 mg/kg. This diluted sample was then added to the ELISA plates and the assay was carried out according to the manufacturer's directions.

[3] = Dynamic light scattering of LNPs: Z-average diameter, number average diameter, PDI; assay type: physicochemical; conditions: LNP, sg:mRNA 1:1, N/P about 6, 50/9/38/3; Table 2, Experiments 2-20
In short: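 LNP samples were diluted in PBS and measured by DLS to give intensity-based Z-average diameter, number average diameter and polydispersity index. PDI describes size spread around the mean, with zero meaning a uniform population.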

Compound	pKa [1]	Encapsulation (%) [2] [%]	Serum TTR % TSS (Transthyretin (TTR)) [%]	Serum TTR (Transthyretin (TTR)) [µg/mL]	Number mean (nm) [3] [nm]	PDI [3]	Z-avg (nm) [3] [nm]
CCCCC/C=C\C/C=C\CCCCCCCC(=O)OCC(COC(=O)CCC(OCCCCCCCC)OCCCCCCCC)COC(=O)NCC1CCCCN1CC (stereo not shown) [Compound 38, 3-((4,4-bis(octyloxy)butanoyl)oxy)-2-(((((1-ethylpiperidin-2-yl)methyl)carbamoyl)oxy)methyl)propyl (9Z,12Z)-octadeca-9,12-dienoate]	7.17	96	60	481	74.58	0.019	91.5
CCCCCCCCCCOC(=O)CCCCCCCC(=O)OCC(COC(=O)CCCCCC(=O)OC(CCCCCCCC)CCCCCCCC)COC(=O)OCCCN(CC)CC (stereo not shown) [Compound 76, 1-decyl 9-(3-(((3-(diethylamino)propoxy)carbonyl)oxy)-2-(((7-(heptadecan-9-yloxy)-7-oxoheptanoyl)oxy)methyl)propyl) nonanedioate]	6.17	99	81	735	80.2	0.097	111.8
CCCCC/C=C\C/C=C\CCCCCCCC(=O)OCC(COC(=O)CCC(OCCCCCCCC)OCCCCCCCC)COC(=O)NC1CCN(CC)C1 (stereo not shown) [Compound 41, 3-((4,4-bis(octyloxy)butanoyl)oxy)-2-((((1-ethylpyrrolidin-3-yl)carbamoyl)oxy)methyl)propyl (9Z,12Z)-octadeca-9,12-dienoate]	7.82	98	95	758	54.1	0.074	74.83
CCCCCCCCCCCCOC(=O)CCCCCCCC(=O)OCC(COC(=O)CCC(OCCCCCCCC)OCCCCCCCC)COC(=O)OCCCN(CC)CC (stereo not shown) [Compound 92, 1-(3-((4,4-bis(octyloxy)butanoyl)oxy)-2-((((3-(diethylamino)propoxy)carbonyl)oxy)methyl)propyl) 9-dodecyl nonanedioate]	6.16	99	62	470	77.35	0.022	93.69
CCCCC/C=C\C/C=C\CCCCCCCC(=O)OCC(COC(=O)CCC(OCCCCCCCC)OCCCCCCCC)COC(=O)OCC1(C)CCCN(CC)C1 (stereo not shown) [Compound 52, 3-((4,4-bis(octyloxy)butanoyl)oxy)-2-(((((1-ethyl-3-methylpiperidin-3-yl)methoxy)carbonyl)oxy)methyl)propyl (9Z,12Z)-octadeca-9,12-dienoate]	7.8	99	84	935	69.4	0.032	86.72
CCCCCCCCCCOC(=O)CCCCCCCC(=O)OCC(COC(=O)CCCC(=O)OC(CCCCCCCC)CCCCCCCC)COC(=O)CCCN(C)C (stereo not shown) [Compound 89, 1-decyl 9-(3-((4-(dimethylamino)butanoyl)oxy)-2-(((5-(heptadecan-9-yloxy)-5-oxopentanoyl)oxy)methyl)propyl) nonanedioate]	6.79	95	102	774	89.4	0.008	107.3
CCCCC/C=C\C/C=C\CCCCCCCC(=O)OCC(COC(=O)CCC(OCCCCCCCC)OCCCCCCCC)COC(=O)NC1CCCN(CC)C1 (stereo not shown) [Compound 36, 3-((4,4-bis(octyloxy)butanoyl)oxy)-2-((((1-ethylpiperidin-3-yl)carbamoyl)oxy)methyl)propyl (9Z,12Z)-octadeca-9,12-dienoate]	6.58	98	99	795	59.48	0.024	73.71
CCCCC/C=C\C/C=C\CCCCCCCC(=O)OCC(COC(=O)CCC(OCCCCCCCC)OCCCCCCCC)COC(=O)NC(C)CN(C)C (stereo not shown) [Compound 45, 3-((4,4-bis(octyloxy)butanoyl)oxy)-2-((((1-(dimethylamino)propan-2-yl)carbamoyl)oxy)methyl)propyl (9Z,12Z)-octadeca-9,12-dienoate]	7.3	98	98	1096	69.23	0.007	82.93
CCCCC/C=C\C/C=C\CCCCCCCC(=O)OCC(COC(=O)CCCCC(OCCCCCCCC)OCCCCCCCC)COC(=O)OCCCN(CC)CC (stereo not shown) [Compound 62, 3-((6,6-bis(octyloxy)hexanoyl)oxy)-2-((((3-(diethylamino)propoxy)carbonyl)oxy)methyl)propyl (9Z,12Z)-octadeca-9,12-dienoate]	6.03	98	–	–	59.35	0.044	73.46
CCCCCCCCOC(CCC(=O)OCC(COC(=O)CCCCCCCCCCC(=O)OCCCCC)COC(=O)OCCCN(CC)CC)OCCCCCCCC (stereo not shown) [Compound 60, 1-(3-((4,4-bis(octyloxy)butanoyl)oxy)-2-((((3-(diethylamino)propoxy)carbonyl)oxy)methyl)propyl) 12-pentyl dodecanedioate]	6.38	97	–	–	84.46	0.022	104.2
CCCCCCCCOC(=O)CCCCCCCC(=O)OCC(COC(=O)CCC(OCCCCCCCC)OCCCCCCCC)COC(=O)OCCCN(CC)CC (stereo not shown) [Compound 58, 1-(3-((4,4-bis(octyloxy)butanoyl)oxy)-2-((((3-(diethylamino)propoxy)carbonyl)oxy)methyl)propyl) 9-octyl nonanedioate]	6.4	95	–	–	72.42	0.029	89.07
CCCCC/C=C\C/C=C\CCCCCCCC(=O)OCC(COCCCN(CC)CC)COC(=O)CCC(OCCCCCCCC)OCCCCCCCC (stereo not shown) [Compound 99, 3-((4,4-bis(octyloxy)butanoyl)oxy)-2-((3-(diethylamino)propoxy)methyl)propyl (9Z,12Z)-octadeca-9,12-dienoate]	7.1	99	–	–	74	0.003	89
